The test addresses T1, calcium-sensing receptor (CaSR) (Rattus norvegicus, UniProt P48442).
T1 sequence (P48442 20-1079): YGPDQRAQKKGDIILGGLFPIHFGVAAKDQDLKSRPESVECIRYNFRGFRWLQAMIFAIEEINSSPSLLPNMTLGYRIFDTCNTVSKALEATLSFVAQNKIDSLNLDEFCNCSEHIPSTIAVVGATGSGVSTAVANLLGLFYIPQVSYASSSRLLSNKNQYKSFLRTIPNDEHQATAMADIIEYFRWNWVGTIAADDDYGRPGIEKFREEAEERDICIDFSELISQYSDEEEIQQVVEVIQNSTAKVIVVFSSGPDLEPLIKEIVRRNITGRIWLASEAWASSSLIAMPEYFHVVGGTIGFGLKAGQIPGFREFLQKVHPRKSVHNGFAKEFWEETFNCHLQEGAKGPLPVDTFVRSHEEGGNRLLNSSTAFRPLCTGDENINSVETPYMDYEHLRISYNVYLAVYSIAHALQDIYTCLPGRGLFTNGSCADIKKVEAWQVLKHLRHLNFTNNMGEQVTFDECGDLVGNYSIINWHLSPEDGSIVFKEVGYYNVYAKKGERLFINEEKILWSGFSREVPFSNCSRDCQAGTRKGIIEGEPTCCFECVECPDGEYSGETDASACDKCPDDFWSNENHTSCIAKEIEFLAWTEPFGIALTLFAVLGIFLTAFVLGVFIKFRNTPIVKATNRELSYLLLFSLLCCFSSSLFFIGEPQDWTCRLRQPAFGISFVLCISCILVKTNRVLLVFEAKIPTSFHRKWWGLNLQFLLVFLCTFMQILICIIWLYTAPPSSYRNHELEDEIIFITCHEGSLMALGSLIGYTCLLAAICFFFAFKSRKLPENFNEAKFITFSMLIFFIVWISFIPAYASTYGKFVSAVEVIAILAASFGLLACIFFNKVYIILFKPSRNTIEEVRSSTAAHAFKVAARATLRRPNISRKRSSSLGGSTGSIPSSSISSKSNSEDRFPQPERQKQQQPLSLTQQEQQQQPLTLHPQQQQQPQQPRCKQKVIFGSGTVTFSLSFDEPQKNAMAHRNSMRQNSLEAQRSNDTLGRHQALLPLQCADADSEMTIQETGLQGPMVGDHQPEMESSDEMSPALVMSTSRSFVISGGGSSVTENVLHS
Kind of test: inhibition of calcium-stimulated IP1 accumulation in HEK293 cells stably transfected with rat CaSR. The class given is cell-based.

The structures appear in SMILES notation.

Drawing on publication PMC3740522, “Synthesis of the calcilytic ligand NPS 2143” (Beilstein Journal of Organic Chemistry, 2013), this text covers IC50 for 1 compound.

Broadly, the IC50 is the concentration needed to halve the response being measured.

As for `CC(C)(Cc1ccc2ccccc2c1)NC[C@@H](O)COc1cccc(Cl)c1C#N` [(R)-3, NPS 2143], the IC50 worked out at 640 nM.
